The target of one test is T1, dog COX-3 (Canis lupus familiaris, UniProt Q8HZR1).
T1 sequence (Q8HZR1 1-633 isoform Q8HZR1-2): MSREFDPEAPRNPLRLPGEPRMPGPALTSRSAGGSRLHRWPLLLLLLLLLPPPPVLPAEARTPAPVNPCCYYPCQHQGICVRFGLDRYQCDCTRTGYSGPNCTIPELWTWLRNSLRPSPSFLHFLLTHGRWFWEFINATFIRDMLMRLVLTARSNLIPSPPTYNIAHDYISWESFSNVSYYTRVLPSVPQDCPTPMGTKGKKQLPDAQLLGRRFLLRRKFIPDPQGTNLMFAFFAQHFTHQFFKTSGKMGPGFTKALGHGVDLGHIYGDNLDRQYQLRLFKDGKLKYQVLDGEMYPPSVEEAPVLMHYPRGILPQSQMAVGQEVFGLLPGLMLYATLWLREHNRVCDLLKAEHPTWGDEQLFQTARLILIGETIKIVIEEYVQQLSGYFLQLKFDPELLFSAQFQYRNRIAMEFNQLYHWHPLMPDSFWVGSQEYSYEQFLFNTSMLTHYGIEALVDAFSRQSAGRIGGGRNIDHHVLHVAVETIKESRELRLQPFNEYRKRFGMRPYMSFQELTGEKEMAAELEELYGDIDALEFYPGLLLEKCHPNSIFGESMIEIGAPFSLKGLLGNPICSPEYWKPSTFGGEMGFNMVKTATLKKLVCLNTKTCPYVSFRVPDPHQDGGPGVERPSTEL
The following applies: cited from earlier work.

Another test deals with ovarian cancer. Conditions: women who reported taking acetaminophen daily; prospective study; cited from earlier work.
Another test concerns the target T2, human COX-3a (Homo sapiens, UniProt P23219).
T2 construct: the full length human COX-3a cDNA was subcloned into pFastBac; made in house; host or cells: Sf9 insect cells (baculovirus, pFastBac); microsomal fraction
The test is described as follows: COX activity assay: PGF2α formation from arachidonic acid by microsomes of Sf9 cells expressing hCOX-3a. The format is biochemical. The following applies: synthesis of PGF2α from arachidonic acid; 20 μg microsomal membrane protein, room temperature, 5 minutes, pH 8.0. As for the experimental part: Microsomal protein fractions were prepared from Sf9 cells infected with the hCOX-3a recombinant baculovirus. Microsomal membrane protein (20 μg) was incubated with the indicated concentration of arachidonic acid in a volume of 150 μl buffer containing 0.1 M Tris-HCl (pH=8.0), 5 mM EDTA, 2 mM phenol and 1.5 μM […]. After incubating at room temperature for 5 minutes, the reaction was terminated by the addition of 40 μl of 1 N HCl with mixing. Samples were neutralized with 40 μl of 1 N NaOH. The formation of the PGF2α product was determined using a PGF2α immunoassay kit (Assay Designs, Inc.), as directed by the manufacturer.

Where [1] appears, read: substrate concentration of 5 mM.

T2 sequence (P23219 1-630 isoform P23219-6): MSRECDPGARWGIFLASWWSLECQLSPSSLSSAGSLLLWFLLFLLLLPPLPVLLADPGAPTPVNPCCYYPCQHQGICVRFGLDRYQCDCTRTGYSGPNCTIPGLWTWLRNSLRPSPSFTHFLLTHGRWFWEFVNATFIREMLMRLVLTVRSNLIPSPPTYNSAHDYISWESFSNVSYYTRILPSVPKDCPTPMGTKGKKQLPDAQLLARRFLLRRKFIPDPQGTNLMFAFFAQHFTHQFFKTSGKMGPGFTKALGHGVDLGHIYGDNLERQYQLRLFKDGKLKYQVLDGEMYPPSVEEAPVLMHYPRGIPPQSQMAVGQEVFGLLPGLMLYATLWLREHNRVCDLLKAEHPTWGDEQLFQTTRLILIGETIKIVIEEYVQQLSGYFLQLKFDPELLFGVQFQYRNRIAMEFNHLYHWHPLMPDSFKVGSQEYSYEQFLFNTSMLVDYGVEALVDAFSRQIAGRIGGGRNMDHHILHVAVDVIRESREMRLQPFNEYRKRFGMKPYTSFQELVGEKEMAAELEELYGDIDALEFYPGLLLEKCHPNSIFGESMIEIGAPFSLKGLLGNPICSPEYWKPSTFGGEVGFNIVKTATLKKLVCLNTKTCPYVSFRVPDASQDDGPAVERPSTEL

As for `Cc1cc(=O)n(-c2ccccc2)n1C` [antipyrine], the “inhibition of dog COX-3 compared with murine COX-1 and -2” value on dog COX-3 was “selectively inhibited”.
For `CC(=O)Nc1ccc(O)cc1` [acetaminophen], the “inhibition of dog COX-3 compared with murine COX-1 and -2” value on dog COX-3 was “selectively inhibited”. Also, on dog COX-3 (setting [1]), the “selectivity for inhibition of dog COX-3 versus murine COX-1” value was 2 fold and the “selectivity for inhibition of dog COX-3 versus murine COX-2” value was 100 fold. Also, in the test with ovarian cancer, the “lower death rate from ovarian cancer than women reporting no use” value is given as 45%.
In the case of `CCOc1ccc(NC(C)=O)cc1` [phenacetin], at dog COX-3, the “inhibition of dog COX-3 compared with murine COX-1 and -2” value is “selectively inhibited”.
By Km is commonly meant the concentration of substrate that gives half-maximal velocity. Broadly, the Vmax is the rate approached at saturating substrate. With `CCCCC/C=C\C/C=C\C/C=C\C/C=C\CCCC(=O)O` [arachidonic acid], at human COX-3a, the Km was 0.54 µM and the Vmax was determined as 3.07 pmol/mg/min.
As to `Cc1c(N(C)CS(=O)(=O)[O-])c(=O)n(-c2ccccc2)n1C.[Na+]` [dipyrone], on dog COX-3, the “inhibition of dog COX-3 compared with murine COX-1 and -2” value is reported as “selectively inhibited”.

Source of the values: US7517676B2, “Human cyclooxygenase-3 enzyme and uses thereof” (Janssen Pharmaceutica N.V., priority 2003, dated 2009).
